Columns and labels:
[1] = system: normal NK cells expanded with K562-aAPC; experiment: percent inhibition of viability; higher = more inhibition; settings: 72 h, IL-2 2.5 ng/mL
Experimental: (§1)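 Drug sensitivity and resistance testing on K562-aAPC-expanded normal NK cells: 5 concentrations (10-fold steps over a 10,000-fold range), 72 h at 37 °C, viability by CellTiter-Glo normalised to DMSO and benzethonium chloride controls; DSS from the fitted curve.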

DERL-7 (IL-2 2.5 ng/mL) [2] = experiment: as above; settings: 72 h
IMC-1 (IL-2 20 ng/mL) [3] = experiment: as above; settings: 72 h
KAI3 (IL-2 2.5 ng/mL) [4] = experiment: as above; settings: 72 h
KHYG-1 (IL-2 2.5 ng/mL) [5] = experiment: as above; settings: 72 h
NK-92 (IL-2 2.5 ng/mL) [6] = experiment: as above; settings: 72 h
NK-YS (IL-2 2.5 ng/mL) [7] = experiment: as above; settings: 72 h
NKL (IL-2 2.5 ng/mL) [8] = experiment: as above; settings: 72 h
SNK-6 (IL-2 2.5 ng/mL) [9] = experiment: as above; settings: 72 h
YT (IL-2 2.5 ng/mL) [10] = experiment: as above; settings: 72 h
[11] = system: normal primary NK cells, pool 1 (3 donors) (IL-2 2.5 ng/mL); experiment: as above; settings: 72 h
[12] = system: normal primary NK cells, pool 1 (3 donors), resting (IL-2 0 ng/mL); experiment: as above; settings: 72 h
[13] = system: normal primary NK cells, pool 2 (3 donors) (IL-2 2.5 ng/mL); experiment: as above; settings: 72 h
[14] = system: normal primary NK cells, pool 3 (3 donors) (IL-2 2.5 ng/mL); experiment: as above; settings: 72 h
[15] = system: normal NK cells expanded with K562-aAPC; experiment: drug sensitivity score (DSS) (DSS units); higher = more sensitive; extreme values may be limits of the assay; settings: 72 h; IL-2 2.5 ng/mL
Experimental: as §1

DERL-7 (IL-2 2.5 ng/mL) [16] = experiment: as above; settings: 72 h
IMC-1 (IL-2 20 ng/mL) [17] = experiment: as above; settings: 72 h
KAI3 (IL-2 2.5 ng/mL) [18] = experiment: as above; settings: 72 h
KHYG-1 (IL-2 2.5 ng/mL) [19] = experiment: as above; settings: 72 h
NK-92 (IL-2 2.5 ng/mL) [20] = experiment: as above; settings: 72 h
NK-YS (IL-2 2.5 ng/mL) [21] = experiment: as above; settings: 72 h
NKL (IL-2 2.5 ng/mL) [22] = experiment: as above; settings: 72 h
SNK-6 (IL-2 2.5 ng/mL) [23] = experiment: as above; settings: 72 h
YT (IL-2 2.5 ng/mL) [24] = experiment: as above; settings: 72 h
[25] = system: normal primary NK cells, pool 1 (3 donors) (IL-2 2.5 ng/mL); experiment: as above; settings: 72 h
[26] = system: normal primary NK cells, pool 1 (3 donors), resting (IL-2 0 ng/mL); experiment: as above; settings: 72 h
[27] = system: normal primary NK cells, pool 2 (3 donors) (IL-2 2.5 ng/mL); experiment: as above; settings: 72 h
[28] = system: normal primary NK cells, pool 3 (3 donors) (IL-2 2.5 ng/mL); experiment: as above; settings: 72 h

Cn1cnc2c(F)c(Nc3ccc(Br)cc3Cl)c(C(=O)NOCCO)cc21 [Selumetinib] (max concentration tested 10000 nM)
percent inhibition of viability [%]
Settings	1 nM	10 nM	100 nM	1000 nM	10000 nM
DERL-7 (IL-2 2.5 ng/mL) [2]	-4.06	8.89	24.4	38.2	51.5
IMC-1 (IL-2 20 ng/mL) [3]	-12.4	-11.4	-5.26	-4.59	17.3
KAI3 (IL-2 2.5 ng/mL) [4]	6.76	0.73	4.04	12.1	29.3
KHYG-1 (IL-2 2.5 ng/mL) [5]	1.06	-1.54	13.7	34.2	61.1
NK-92 (IL-2 2.5 ng/mL) [6]	2.8	1.89	-10.2	-8.53	36.1
NK-YS (IL-2 2.5 ng/mL) [7]	5.92	-5.87	0.1	1.88	27.9
NKL (IL-2 2.5 ng/mL) [8]	-4.4	-0.32	26.8	39	72.7
SNK-6 (IL-2 2.5 ng/mL) [9]	-18.1	-10.6	-25.8	-31.2	-26.9
YT (IL-2 2.5 ng/mL) [10]	2.15	-4.23	-5.27	-0.32	16.7
[1]	-5.33	-3.66	-3.4	-0.06	16.8
[11]	-4.68	-3.55	18.9	23.4	19.1
[12]	-1.79	-0.33	21.2	18.2	16.7
[13]	-9.3	-7.88	3.43	19.3	18.2
[14]	-5.55	-8.58	-1.51	-0.3	13.4

Settings	drug sensitivity score
DERL-7 (IL-2 2.5 ng/mL) [16]	10.2
IMC-1 (IL-2 20 ng/mL) [17]	0.24
KAI3 (IL-2 2.5 ng/mL) [18]	2.27
KHYG-1 (IL-2 2.5 ng/mL) [19]	7.98
NK-92 (IL-2 2.5 ng/mL) [20]	1.3
NK-YS (IL-2 2.5 ng/mL) [21]	1.42
NKL (IL-2 2.5 ng/mL) [22]	10.8
SNK-6 (IL-2 2.5 ng/mL) [23]	0
YT (IL-2 2.5 ng/mL) [24]	0.33
[15]	0.36
[25]	5.53
[26]	5.28
[27]	2.98
[28]	0.11
